Laboratory results: ChEMBL document CHEMBL5723587, “Data for DCP probe BI-113823” (2024)
Activity calls are given as the source filed them. The rule behind the calls is not given here.

Legend:
[1] = target: Neuropeptide Y receptor type 2 (Homo sapiens) (UniProt P49146); experiment: Activity against Y2/HU in the Eurofins SafetyScreen44 (BI) by Radioactive Assay; details: Compound concentration 10.0 uM
[2] = target: Sodium-dependent noradrenaline transporter (Homo sapiens) (UniProt P23975); experiment: Activity against NETRANS/H in the Eurofins SafetyScreen44 (BI) by Radioactive Assay; details: Compound concentration 10.0 uM
Sequence of Sodium-dependent noradrenaline transporter (Homo sapiens) (P23975 whole entry): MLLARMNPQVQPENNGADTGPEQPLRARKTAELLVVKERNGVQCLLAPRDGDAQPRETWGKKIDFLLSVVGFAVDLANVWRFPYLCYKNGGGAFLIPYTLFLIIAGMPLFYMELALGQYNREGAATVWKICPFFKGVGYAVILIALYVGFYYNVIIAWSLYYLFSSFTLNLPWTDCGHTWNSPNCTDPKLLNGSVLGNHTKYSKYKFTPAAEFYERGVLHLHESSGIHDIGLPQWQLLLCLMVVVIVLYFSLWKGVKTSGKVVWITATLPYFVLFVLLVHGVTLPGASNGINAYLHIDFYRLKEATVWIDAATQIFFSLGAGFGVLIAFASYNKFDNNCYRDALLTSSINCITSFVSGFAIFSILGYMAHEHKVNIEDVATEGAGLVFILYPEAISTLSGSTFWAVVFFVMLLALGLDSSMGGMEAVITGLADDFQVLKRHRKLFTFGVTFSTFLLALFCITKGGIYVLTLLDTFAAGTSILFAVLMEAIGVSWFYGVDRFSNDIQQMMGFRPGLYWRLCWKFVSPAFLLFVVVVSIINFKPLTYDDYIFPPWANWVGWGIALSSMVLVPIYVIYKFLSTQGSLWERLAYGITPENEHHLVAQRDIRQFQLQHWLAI

[3] = target: Adenosine receptor A1 (Homo sapiens) (UniProt P30542); experiment: Activity against A1/HU in the Eurofins SafetyScreen44 (BI) by Radioactive Assay; details: Compound concentration 10.0 uM
[4] = target: 3',5'-cyclic-AMP phosphodiesterase 4A (Rattus norvegicus) (UniProt P54748); experiment: Activity against ROLIPRAM/R in the Eurofins SafetyScreen44 (BI) by Radioligand Binding; details: Compound concentration 10.0 uM
Sequence of 3',5'-cyclic-AMP phosphodiesterase 4A (Rattus norvegicus) (P54748 whole entry): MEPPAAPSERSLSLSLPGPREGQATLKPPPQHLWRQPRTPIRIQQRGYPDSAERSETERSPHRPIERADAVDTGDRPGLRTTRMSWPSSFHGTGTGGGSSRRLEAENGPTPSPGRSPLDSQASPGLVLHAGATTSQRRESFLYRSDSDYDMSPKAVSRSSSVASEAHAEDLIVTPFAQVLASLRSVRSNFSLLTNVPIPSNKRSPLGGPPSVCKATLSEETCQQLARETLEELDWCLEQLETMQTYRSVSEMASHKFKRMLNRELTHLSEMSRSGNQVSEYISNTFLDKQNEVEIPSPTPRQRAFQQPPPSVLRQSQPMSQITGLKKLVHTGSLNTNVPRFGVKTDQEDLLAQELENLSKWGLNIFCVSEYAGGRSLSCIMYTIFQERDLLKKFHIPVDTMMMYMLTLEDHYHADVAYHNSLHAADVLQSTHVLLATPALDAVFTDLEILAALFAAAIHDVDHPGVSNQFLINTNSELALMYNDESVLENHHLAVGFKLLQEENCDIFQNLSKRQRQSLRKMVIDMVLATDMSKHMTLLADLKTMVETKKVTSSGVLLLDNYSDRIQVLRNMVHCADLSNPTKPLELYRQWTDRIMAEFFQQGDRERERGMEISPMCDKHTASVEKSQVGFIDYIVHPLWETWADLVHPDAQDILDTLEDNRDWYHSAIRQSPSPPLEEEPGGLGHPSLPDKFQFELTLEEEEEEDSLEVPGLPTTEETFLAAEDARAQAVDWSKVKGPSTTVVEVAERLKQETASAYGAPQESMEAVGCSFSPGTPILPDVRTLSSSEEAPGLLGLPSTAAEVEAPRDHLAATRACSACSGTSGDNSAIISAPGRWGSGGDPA

[5] = target: Beta-2 adrenergic receptor (Homo sapiens) (UniProt P07550); experiment: Activity against BETA2/HU in the Eurofins SafetyScreen44 (BI) by Radioactive Assay; details: Compound concentration 10.0 uM
Sequence of Beta-2 adrenergic receptor (Homo sapiens) (P07550 whole entry, looked up): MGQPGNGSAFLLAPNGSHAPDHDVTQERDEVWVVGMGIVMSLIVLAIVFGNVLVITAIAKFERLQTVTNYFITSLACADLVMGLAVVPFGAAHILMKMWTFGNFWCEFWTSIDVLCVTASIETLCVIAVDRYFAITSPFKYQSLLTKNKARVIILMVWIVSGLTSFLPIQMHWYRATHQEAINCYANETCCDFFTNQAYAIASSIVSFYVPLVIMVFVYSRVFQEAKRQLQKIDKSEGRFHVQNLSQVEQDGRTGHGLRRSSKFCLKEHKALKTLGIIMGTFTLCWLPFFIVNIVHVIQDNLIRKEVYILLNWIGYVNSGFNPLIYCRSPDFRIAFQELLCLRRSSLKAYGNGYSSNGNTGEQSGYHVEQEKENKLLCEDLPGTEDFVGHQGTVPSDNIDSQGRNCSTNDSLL

[6] = target: Sodium- and chloride-dependent GABA transporter 1 (Rattus norvegicus) (UniProt P23978); experiment: Activity against GABATRANS/RA in the Eurofins SafetyScreen44 (BI) by Radioactive Assay; details: Compound concentration 10.0 uM
[7] = target: Endothelin receptor type B (Homo sapiens) (UniProt P24530); experiment: Activity against ETB/HUM in the Eurofins SafetyScreen44 (BI) by Radioactive Assay; details: Compound concentration 10.0 uM
[8] = target: ATP-sensitive inward rectifier potassium channel 1 isoform X1 (Mesocricetus auratus) (UniProt A0A1U8CU73); experiment: Activity against K+/KATP/HA in the Eurofins SafetyScreen44 (BI) by Radioactive Assay; details: Cricetinae; Compound concentration 10.0 uM
[9] = target: D(4) dopamine receptor (Homo sapiens) (UniProt P21917); experiment: Activity against D4.2/H in the Eurofins SafetyScreen44 (BI) by Radioactive Assay; details: Compound concentration 10.0 uM
[10] = target: B2 bradykinin receptor (Homo sapiens) (UniProt P30411); experiment: Activity against B2/HU in the Eurofins SafetyScreen44 (BI) by Radioactive Assay; details: Compound concentration 10.0 uM
[11] = target: Substance-P receptor (Homo sapiens) (UniProt P25103); experiment: Activity against NK1/HU in the Eurofins SafetyScreen44 (BI) by Radioactive Assay; details: Compound concentration 10.0 uM
[12] = target: Beta-1 adrenergic receptor (Homo sapiens) (UniProt P08588); experiment: Activity against BETA1/HU in the Eurofins SafetyScreen44 (BI) by Radioactive Assay; details: Compound concentration 10.0 uM
Sequence of Beta-1 adrenergic receptor (Homo sapiens) (P08588 whole entry, looked up): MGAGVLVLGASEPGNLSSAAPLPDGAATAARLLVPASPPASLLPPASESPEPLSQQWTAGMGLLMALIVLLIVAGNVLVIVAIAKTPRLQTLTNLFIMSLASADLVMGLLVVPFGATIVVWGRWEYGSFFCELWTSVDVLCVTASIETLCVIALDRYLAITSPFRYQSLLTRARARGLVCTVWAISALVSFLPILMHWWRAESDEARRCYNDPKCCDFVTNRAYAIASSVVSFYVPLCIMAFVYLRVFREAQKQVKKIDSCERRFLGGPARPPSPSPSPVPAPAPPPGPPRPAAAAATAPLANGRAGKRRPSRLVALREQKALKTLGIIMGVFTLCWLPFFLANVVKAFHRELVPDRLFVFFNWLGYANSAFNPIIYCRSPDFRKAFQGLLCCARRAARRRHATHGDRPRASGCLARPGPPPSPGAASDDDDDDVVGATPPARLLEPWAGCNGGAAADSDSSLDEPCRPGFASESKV

[13] = target: Delta-type opioid receptor (Homo sapiens) (UniProt P41143); experiment: Activity against DELTA/HU in the Eurofins SafetyScreen44 (BI) by Radioactive Assay; details: Compound concentration 10.0 uM
[14] = target: Histamine H1 receptor (Homo sapiens) (UniProt P35367); experiment: Activity against H1/H in the Eurofins SafetyScreen44 (BI) by Radioactive Assay; details: Compound concentration 10.0 uM
B1 bradykinin receptor [15] = target: T1, B1 bradykinin receptor (Homo sapiens, UniProt P46663); experiment: Measurement of intracellular calcium in HEK-cells expressing hBDKRB1 at up to 1 µM ( The compound antagonizes the effects of the specific B1 agonist [Lys-des-Arg9 ]-Bradykinin (10 nM) in a concentration-dependent manner.); assay type: functional, cell-based; design: compound concentration < 1 uM
T1 sequence (P46663 whole entry): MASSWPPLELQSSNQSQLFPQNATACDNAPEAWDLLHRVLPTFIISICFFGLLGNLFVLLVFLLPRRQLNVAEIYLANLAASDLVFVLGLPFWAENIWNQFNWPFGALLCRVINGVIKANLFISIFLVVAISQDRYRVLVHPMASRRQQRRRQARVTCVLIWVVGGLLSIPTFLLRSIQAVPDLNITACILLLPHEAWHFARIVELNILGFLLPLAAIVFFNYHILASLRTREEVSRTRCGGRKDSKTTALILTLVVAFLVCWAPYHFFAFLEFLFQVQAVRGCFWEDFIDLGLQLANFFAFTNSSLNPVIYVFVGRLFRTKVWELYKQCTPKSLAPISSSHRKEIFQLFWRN

[16] = target: Pyroglutamylated RF-amide peptide receptor (Homo sapiens) (UniProt Q96P65); experiment: Activity against GPR103 in the Eurofins SafetyScreen44 (BI) by Radioactive Assay; details: Compound concentration 10.0 uM
[17] = target: Mu-type opioid receptor (Homo sapiens) (UniProt P35372); experiment: Activity against MU/HU in the Eurofins SafetyScreen44 (BI) by Radioactive Assay; details: Compound concentration 10.0 uM
Sequence of Mu-type opioid receptor (Homo sapiens) (P35372 whole entry): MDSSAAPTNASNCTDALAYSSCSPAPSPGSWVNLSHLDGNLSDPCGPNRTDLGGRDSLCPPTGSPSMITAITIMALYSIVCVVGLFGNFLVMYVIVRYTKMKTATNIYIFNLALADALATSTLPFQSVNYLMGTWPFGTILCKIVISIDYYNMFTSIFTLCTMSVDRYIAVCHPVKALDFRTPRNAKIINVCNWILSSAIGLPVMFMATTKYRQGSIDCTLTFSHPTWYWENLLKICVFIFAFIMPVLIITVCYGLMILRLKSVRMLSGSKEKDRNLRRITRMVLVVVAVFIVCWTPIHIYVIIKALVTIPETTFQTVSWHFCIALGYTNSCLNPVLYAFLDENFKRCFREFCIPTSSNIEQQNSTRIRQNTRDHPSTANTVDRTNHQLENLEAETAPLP

[18] = target: Prostaglandin E2 receptor EP4 subtype (Homo sapiens) (UniProt P35408); experiment: Activity against EP4/H in the Eurofins SafetyScreen44 (BI) by Radioactive Assay; details: Compound concentration 10.0 uM
[19] = target: Voltage-dependent N-type calcium channel subunit alpha-1B (Rattus norvegicus) (UniProt Q02294); experiment: Activity against CA+/N/RA in the Eurofins SafetyScreen44 (BI) by Radioactive Assay; details: Compound concentration 10.0 uM
[20] = target: Glutamate NMDA receptor (Rattus norvegicus) (UniProt P35439+Q00959+Q00960+Q00961+Q62645+Q8VHN2+Q9R1M7); experiment: Agonist activity in the Eurofins SafetyScreen44 (BI) against NMDAAGSI/RA by Radioactive Assay; assay type: protein-complex assay; details: Compound concentration 10.0 uM
[21] = target: Androgen receptor (Rattus norvegicus) (UniProt P15207); experiment: Activity against TESTOST/RA in the Eurofins SafetyScreen44 (BI) by Others; details: Compound concentration 10.0 uM
Sequence of Androgen receptor (Rattus norvegicus) (P15207 whole entry S389L): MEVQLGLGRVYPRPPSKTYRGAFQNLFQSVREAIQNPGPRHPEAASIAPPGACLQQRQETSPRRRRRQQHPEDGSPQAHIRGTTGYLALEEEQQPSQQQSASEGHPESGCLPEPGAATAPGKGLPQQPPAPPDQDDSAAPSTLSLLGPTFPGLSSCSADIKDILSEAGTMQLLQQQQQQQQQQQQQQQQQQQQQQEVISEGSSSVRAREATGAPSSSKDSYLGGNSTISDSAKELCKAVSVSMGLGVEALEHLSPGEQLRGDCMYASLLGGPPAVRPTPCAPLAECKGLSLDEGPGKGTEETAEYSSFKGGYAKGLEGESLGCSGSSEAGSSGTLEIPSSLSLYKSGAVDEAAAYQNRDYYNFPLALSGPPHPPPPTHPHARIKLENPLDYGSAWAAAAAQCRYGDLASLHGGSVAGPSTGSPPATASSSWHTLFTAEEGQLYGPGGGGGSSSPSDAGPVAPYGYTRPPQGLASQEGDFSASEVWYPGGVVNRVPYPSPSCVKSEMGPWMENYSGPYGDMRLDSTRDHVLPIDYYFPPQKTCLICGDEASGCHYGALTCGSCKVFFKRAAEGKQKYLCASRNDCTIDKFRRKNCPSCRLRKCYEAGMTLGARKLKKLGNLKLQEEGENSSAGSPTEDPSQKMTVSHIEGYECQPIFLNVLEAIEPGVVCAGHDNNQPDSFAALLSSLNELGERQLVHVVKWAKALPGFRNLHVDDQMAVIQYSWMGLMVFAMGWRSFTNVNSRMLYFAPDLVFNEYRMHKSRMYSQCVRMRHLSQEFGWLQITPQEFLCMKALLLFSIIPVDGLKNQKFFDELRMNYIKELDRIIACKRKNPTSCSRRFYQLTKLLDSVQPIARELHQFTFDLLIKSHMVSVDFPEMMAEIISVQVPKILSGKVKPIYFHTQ

[22] = target: Glucocorticoid receptor (Homo sapiens) (UniProt P04150); experiment: Activity against GLUCOCORTICO in the Eurofins SafetyScreen44 (BI) by Radioactive Assay; details: Compound concentration 10.0 uM
B1 bradykinin receptor [23] = target: B1 bradykinin receptor (Oryctolagus cuniculus, UniProt P48748); experiment: Radioligand binding assay (displacement of kallidin, rabbit BDKRB1 ) at 10 µM ( Non-specific binding is estimated in the presence of 10 µM Des-Arg9- (Leu8)-Bradykinin. Membranes are filtered and washed, the filters are then counted to determine [3H]Kallidin[des-Arg10, Leu9] specifically bound.); design: compound concentration 10 uM
[24] = target: Nicotinic acetylcholine receptor alpha-1/beta-1 (Homo sapiens) (UniProt P02708+P11230); experiment: Activity against NACH_BS_N/H in the Eurofins SafetyScreen44 (BI) by Radioactive Assay; assay type: protein-complex assay; details: Compound concentration 10.0 uM
[25] = target: Acetylcholine receptor subunit alpha (Homo sapiens) (UniProt P02708); experiment: Activity against NACH/H in the Eurofins SafetyScreen44 (BI) by Radioligand Binding; details: Compound concentration 10.0 uM
[26] = target: Interleukin-1 receptor type 1 (Mus musculus) (UniProt P13504); experiment: Activity against IL-1ALPHA/M in the Eurofins SafetyScreen44 (BI) by Others; details: Compound concentration 10.0 uM
Sequence of Interleukin-1 receptor type 1 (Mus musculus) (P13504 whole entry): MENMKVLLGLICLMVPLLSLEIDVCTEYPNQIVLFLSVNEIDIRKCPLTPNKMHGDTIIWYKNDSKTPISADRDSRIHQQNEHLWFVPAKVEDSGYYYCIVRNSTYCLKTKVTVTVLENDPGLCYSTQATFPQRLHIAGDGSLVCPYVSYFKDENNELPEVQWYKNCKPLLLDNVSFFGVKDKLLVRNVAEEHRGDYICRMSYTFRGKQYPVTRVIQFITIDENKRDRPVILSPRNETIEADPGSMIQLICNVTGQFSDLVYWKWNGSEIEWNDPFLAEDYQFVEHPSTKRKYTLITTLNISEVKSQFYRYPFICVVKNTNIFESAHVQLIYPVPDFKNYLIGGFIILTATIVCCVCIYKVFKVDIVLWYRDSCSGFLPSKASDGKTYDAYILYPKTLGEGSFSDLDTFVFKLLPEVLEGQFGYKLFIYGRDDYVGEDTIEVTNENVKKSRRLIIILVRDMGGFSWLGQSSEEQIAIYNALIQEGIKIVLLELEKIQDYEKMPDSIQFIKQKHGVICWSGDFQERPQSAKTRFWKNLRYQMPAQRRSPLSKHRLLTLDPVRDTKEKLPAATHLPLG

[27] = target: Gamma-aminobutyric acid receptor subunit alpha-1 (Rattus norvegicus) (UniProt P62813); experiment: Activity against GABAACENTR in the Eurofins SafetyScreen44 (BI) by Radioactive Assay; details: Compound concentration 10.0 uM
[28] = target: Muscarinic acetylcholine receptor M3 (Homo sapiens) (UniProt P20309); experiment: Activity against M3/HU in the Eurofins SafetyScreen44 (BI) by Radioactive Assay; details: Compound concentration 10.0 uM
[29] = target: 5-hydroxytryptamine receptor 1A (Homo sapiens) (UniProt P08908); experiment: Activity against 5HT1A/HU in the Eurofins SafetyScreen44 (BI) by Radioactive Assay; details: Compound concentration 10.0 uM

Compound COc1cc(C)c(S(=O)(=O)N(C)CCOCC(=O)N(C)[C@H]2CCC[C@@H](N3CCN(C)CC3)C2)c(C)c1 has a residual activity [1] of 111%, a residual activity [2] of 114% and a residual activity [3] of 99%. It also gave a residual activity [4] of 84%, a residual activity [5] of 103% and a residual activity [6] of 119%. It also gave a residual activity [7] of 104%, a residual activity [8] of 90% and a residual activity [9] of 101%. For the same compound, the residual activity [10] was 108%, the residual activity [11] was 109% and the residual activity [12] was 105%. For the same compound, the residual activity [13] was 86%, the residual activity [14] was 85% and the IC50 (B1 bradykinin receptor [15]) was 7 nM (active). It also gave a residual activity [16] of 105%, a residual activity [17] of 91% and a residual activity [18] of 93%. It also gave a residual activity [19] of 100%, a residual activity [20] of 92% and a residual activity [21] of 96%. The residual activity [22] was 103%, the Ki (B1 bradykinin receptor [23]) was 15.3 nM (active) and the residual activity [24] was 96%. It also gave a residual activity [25] of 100%, a residual activity [26] of 79% and a residual activity [27] of 96%. It also gave a residual activity [28] of 84% and a residual activity [29] of 99%.
